We go through 31 compounds from patent publication US4352804A, “Oxime ethers, their preparation and pharmaceutical compositions containing them” (ACF Chemiefarma NV, priority 1978, dated 1982).

The conditions of data set [1]: J. Pharm. Sci. 58, 138-141 (1969); cited from earlier work.
Data set [2] deals with Gastric Secretion, in the Pyloric Ligated Rat. Briefly: Effects on gastric secretion in the pyloric ligated rat (Shay method). The settings on record: intraduodenal, Table 1, 100 mg/kg i.d., 3 hours, mean of a number of experiments vs vehicle control. The format is in vivo. As to the method:
1. Effects on Gastric Secretion, in the Pyloric Ligated Rat.
The method as described by Shay et al. (Gastroenterol. 26, 906 (1945)) was used. After overnight starvation, the pylorus was ligated under halothane anaesthesia, and the compound under test or vehicle only administered intraduodenally and the rats allowed to recover. They were sacrificed three hours later and the gastric juice removed. After measurement of the volume of secretion, its hydrogen ion concentration [H^+ ] was determined by titration with 0.05 n NaOH to pH 7. Groups of 4-6 animals were used for each treatment and the inhibitory effects of the compound were ascertained by comparison of the mean values obtained with those from a simultaneously set up control group of animals which received vehicle only. Students `t` test was applied for significance between groups. The mean values for % inhibition obtained for a number of experiments are shown in the following Table 1, the dosage being 100 mg/kg i.d.

The subject of data set [3] is indomethacin induced gastric damage in the rat. Briefly: Anti-ulcer activity: inhibition of indomethacin induced gastric damage. The settings on record: po, 5 h, Table 2, *50 mg/kg orally, 30 min prior to and 2 h after indomethacin 15 mg/kg s.c. The format is in vivo.
Data set [4] shares this test system. The description is as above. The settings on record: po, 5 h, Table 2, 100 mg/kg orally, 30 min prior to and 2 h after indomethacin 15 mg/kg s.c. The format is in vivo. The method, then: This was assessed by the inhibition of indomethacin induced gastric damage in the rat according to the method of Elegbe (Israeli J. Med. Sci. 10, 1451 (1974)).
Rats were starved overnight, given indomethacin subcutaneously (15 mg/kg) and sacrificed 5 hours later. Stomachs were inflated with 0.9% saline, cut along the greater curvature, pinned out and scored for gastric damage by the following system:
Score 1-3 according to the degree of erythema and slight haemorrhage.
Score 4-6 according to the degree of mucosal erosion.
Score 7-9 according to the depth of gastric damage. Groups of 7 rats were used for each treatment level of the compound under test and a similar group receiving vehicle only was set up on each occasion of testing. Compound or vehicle was administered orally 30 minutes prior to, and at 2 hours after, dosing with indomethacin. Mean values per treatment were obtained using the above scoring system and the Mann Witney test applied for significance between such values. The mean inhibition of gastric damage from a number of experiments is shown in the following Table 2; the dosage being 100 mg/kg orally.

The conditions of data set [5]: Farmaco, Ed. Sci. 19, 668-702 (1964); cited from earlier work.
[6] abbreviates: read-out: % Inhibition, Volume (of gastric secretion).
Where [7] appears, read: read-out: % Inhibition, [H^+ ] (hydrogen ion concentration of gastric juice).

Structures can show the parent of a compound that is named as a salt. Where two headings read alike, the source gives them in different places.

For `COc1ccc(C(=NOCCN(C)C)c2cccs2)cc1` [4-methoxyphenyl 2-thienyl ketone, O-dimethylaminoethyl oxime], the “effective dose versus toxic dose” value in data set [1] was “the effective dose was very close to the toxic dose”.
As for `CO/N=C(/c1ccccc1)c1cnccn1` [Compound 1, Phenyl pyrazinyl ketone, O-methyl oxime], the inhibition in vivo at 100 mg/kg in data set [2] (setting [6]) worked out at 77%; in data set [2] (setting [7]), 23%. This compound also showed an inhibition in vivo at 50 mg/kg in data set [3] of 74%.
`CO/N=C(/c1ccc(Cl)cc1)c1cnccn1` [Compound 2, 4-chlorophenyl pyrazinyl ketone, O-methyl oxime]: the inhibition in vivo at 100 mg/kg in data set [2] (setting [6]) was 68%; in data set [2] (setting [7]), 21%; in data set [4], 68%.
With `CO/N=C(/c1ccc(F)cc1)c1cnccn1` [Compound 7, 4-fluorophenyl pyrazinyl ketone, O-methyl oxime], the inhibition in vivo at 100 mg/kg was 72% in data set [2] (setting [6]) and 96% in data set [4].
Take `CO/N=C(\c1ccc(F)cc1)c1cnccn1` [Compound 8, 4-fluorophenyl pyrazinyl ketone, O-methyl oxime]: the inhibition in vivo at 100 mg/kg in data set [2] (setting [6]) amounted to 72%; in data set [4] it was 96%.
Regarding `CON=C(c1ccccc1)c1c(C)cc2ccccn12` [Compound 9, 2-methyl-3-indolizinyl phenyl ketone, O-methyl oxime], the inhibition in vivo at 100 mg/kg in data set [2] (setting [6]) came out at 83%; in data set [2] (setting [7]), 52%.
For `CO/N=C(\c1ccccc1)c1cn2ccccc2n1` [Compound 10, 2-imidazo[1,2-a]pyridinyl phenyl ketone, O-methyl oxime], the inhibition in vivo at 100 mg/kg in data set [2] (setting [6]) amounted to 66%; in data set [2] (setting [7]), 23%. Besides, the inhibition in vivo at 50 mg/kg in data set [3] came to 89%.
With `CO/N=C(/c1ccccc1)c1cn2ccccc2n1` [Compound 11, 2-imidazo[1,2-a]pyridinyl phenyl ketone, O-methyl oxime], in data set [2] (setting [6]), the inhibition in vivo at 100 mg/kg is 77%. In addition, the inhibition in vivo at 50 mg/kg in data set [3] came to 67%.
Regarding `CO/N=C(\c1ccccc1)c1cnc2ccccn12` [Compound 12, 3-imidazo[1,2-a]pyridinyl phenyl ketone, O-methyl oxime], the values for the inhibition in vivo at 100 mg/kg in data set [2] (setting [6]), in data set [2] (setting [7]) and in data set [4] were 55%, 25% and 61%, respectively.
For the compound `CON=C(c1ccccc1)c1c(C)nc2ccccn12` [Compound 14, 2-methyl-3-imidazo[1,2-a]pyridinyl phenyl ketone, O-methyl oxime.HCl], the inhibition in vivo at 100 mg/kg amounted to 59% in data set [2] (setting [6]), 23% in data set [2] (setting [7]) and 78% in data set [4].
Take `CO/N=C(\c1ccccc1)c1ncc[nH]1` [Compound 17, 2-imidazolyl phenyl ketone, O-methyl oxime]: the inhibition in vivo at 100 mg/kg in data set [2] (setting [6]) was determined as 55%; in data set [2] (setting [7]), 26%; in data set [4] it was 100%.
Take `CO/N=C(/c1ccccc1)c1ncc[nH]1` [Compound 18, 2-imidazolyl phenyl ketone, O-methyl oxime]: the inhibition in vivo at 100 mg/kg in data set [2] (setting [6]) was 87%; in data set [4], 91%.
Consider `CON=C(c1ccccc1)c1nccn1C` [Compound 19, 1-methyl-2-imidazolyl phenyl ketone, O-methyl oxime], for which the figures for the inhibition in vivo at 100 mg/kg in data set [2] (setting [6]), in data set [2] (setting [7]) and in data set [4] were 69%, 49% and 91%, respectively.
In data set [4], `CON=C(c1ccccc1)c1nc2ccccc2[nH]1` [Compound 20, 2-benzimidazolyl phenyl ketone, O-methyl oxime] yielded an inhibition in vivo at 100 mg/kg of 78%.
With `CO/N=C(\c1ccccc1)c1nccs1` [Compound 21, phenyl 2-thiazolyl ketone, O-methyl oxime], the inhibition in vivo at 100 mg/kg was found to be 57% in data set [2] (setting [6]) and 89% in data set [4].
With `CO/N=C(/c1ccccc1)c1nccs1` [Compound 22, phenyl 2-thiazolyl ketone, O-methyl oxime.HBr], the inhibition in vivo at 100 mg/kg in data set [2] (setting [6]) was 68%; in data set [4] it was 78%.
On to `CON=C(c1cnccn1)c1ccco1` [Compound 23, 2-furanyl pyrazinyl ketone, O-methyl oxime], for which the inhibition in vivo at 100 mg/kg in data set [2] (setting [6]) is 67%; in data set [4] it was 98%.
Consider `N#CCON=C(c1ccccc1)c1cnccn1` [Compound 24, Phenyl pyrazinyl ketone, O-cyanomethyl oxime], for which the inhibition in vivo at 100 mg/kg in data set [4] is 93%.
`C=CCON=C(c1ccccc1)c1cnccn1` [Compound 25, phenyl pyrazinyl ketone, O-allyl oxime]: the values for the inhibition in vivo at 100 mg/kg in data set [2] (setting [6]), in data set [2] (setting [7]) and in data set [4] were 87%, 27% and 56%, respectively.
Consider `C#CCON=C(c1ccccc1)c1cnccn1` [Compound 26, phenyl pyrazinyl ketone, O-propargyl oxime], for which the inhibition in vivo at 100 mg/kg in data set [4] is 53%.
Consider `CN(C)CCCON=C(c1ccccc1)c1cnccn1` [Compound 27, phenyl pyrazinyl ketone, O-3-N,N-dimethylaminopropyl oxime.1 maleic acid], for which the results for the inhibition in vivo at 100 mg/kg in data set [2] (setting [6]), in data set [2] (setting [7]) and in data set [4] were 67%, 49% and 92%, respectively.
Regarding `CN(C)CCON=C(c1ccccc1)c1cnccn1` [Compound 28, phenyl pyrazinyl ketone, O-2,N,N-dimethylaminoethyl oxime.1 maleic acid], the inhibition in vivo at 100 mg/kg is 56% in data set [2] (setting [6]) and 59% in data set [2] (setting [7]).
Consider `CN(C)CCCON=C(c1ccccc1)c1cnc2ccccn12` [Compound 29, 3-imidazo[1,2-a]pyridinyl phenyl ketone, O-3-N,N-dimethylaminopropyl oxime.1/2 fumaric acid], for which the inhibition in vivo at 100 mg/kg in data set [4] was 75%.
Regarding `CN(C)CCCON=C(c1ccccc1)c1ccc2ccccc2n1` [Compound 30, phenyl 2-quinolinyl ketone, O-3-N,N-dimethylaminopropyl oxime.1 fumaric acid], the inhibition in vivo at 100 mg/kg turned out to be 72% in data set [2] (setting [6]), 37% in data set [2] (setting [7]) and 79% in data set [4].
On to `CN(C)CCCON=C(c1ccccc1)c1ncc[nH]1` [Compound 31, 2-imidazolyl phenyl ketone, O-3-N,N-dimethylaminopropyl oxime], for which the inhibition in vivo at 100 mg/kg worked out at 80% in data set [2] (setting [6]), 72% in data set [2] (setting [7]) and 56% in data set [4].
Consider `CN(C)CCCON=C(c1ccccc1)c1nccn1C` [Compound 32, 1-methyl-2-imidazolyl phenyl ketone, O-3-N,N-dimethylaminopropyl oxime], for which the inhibition in vivo at 100 mg/kg in data set [2] (setting [6]) came to 83%; in data set [2] (setting [7]) it was 41%.
Turning to `CN(C)CCCON=C(c1ccccc1)c1nc2ccccc2s1` [Compound 33, 2-benzothiazolyl phenyl ketone, O-3-N,N-dimethylaminopropyl oxime.1 fumaric acid], the inhibition in vivo at 100 mg/kg amounted to 55% in data set [2] (setting [6]), 38% in data set [2] (setting [7]) and 62% in data set [4].
`CN(C)CCCO/N=C(\c1ccccc1)c1nccs1` [Compound 34, phenyl 2-thiazolyl ketone, O-3-N,N-dimethylaminopropyl oxime.1 fumaric acid]: the inhibition in vivo at 100 mg/kg in data set [2] (setting [6]) worked out at 82%; in data set [2] (setting [7]), 42%.
Take `CN(C)CCON=C(Cc1ccccn1)c1ccccc1` [phenyl 2-picolinyl ketone, O-dimethylaminoethyl oxime]: in data set [1], the anti-androgenic activity result is recorded as “showed anti-androgenic activity” and the “effective dose versus toxic dose” value was “the effective dose was very close to the toxic dose”.
On to `C[N+](C)(C)CCON=C(c1ccccc1)c1ccccn1` [phenyl 2-pyridinyl ketone, O-dimethylaminoethyl oxime methiodide], for which, in data set [5], the acetylcholine antagonistic activity entry is on record as “showed acetylcholine antagonistic activity”.
“phenyl 2-pyridinyl ketone, O-di(m)ethylaminoethyl oxime”: in data set [1], the anti-androgenic activity result is reported as “showed anti-androgenic activity” and the “effective dose versus toxic dose” value was “the effective dose was very close to the toxic dose”.
